Measured values from patent US7202196B2, “Selective herbicide comprising a tetrazolinone derivative” (Bayer Cropscience AG, priority 2001, dated 2007).

What was measured:
Type in all cases: in vivo
[1] = test system: Aeschynomene rudis; experiment: Example A: test in sown rice (Brazil), herbicidal effect; conditions: fentrazamide 250 EC 400 g a.i./ha; spray at 1-2-leaf stage of the rice, 10 days after sowing; scored 3 weeks after application; outdoor test Brazil 1999
From the text: (§1) To prepare a spray preparation, the active compound preparations are mixed with water. The concentration is adjusted so that the application rate corresponds to 200 l of water/ha.
(§2) Rice seeds are sown in test plots (2 m×5 m) in rice paddies. 10 days after sowing (when the rice has reached the 1-2-leaf stage), the spray preparation is applied to the test areas (using a hand-operated sprayer). 1 month after the treatment, the soil is flooded to a water depth of 5 cm; the standing water levels are kept constant.
(§3) 3 weeks after the active compound application, the degree of damage to the rice plants and the herbicidal effect on the emerged weeds of the species Aeschynomene rudis is scored visually in percent in comparison to an untreated control.
(§4) The figures denote: • 0%=no action/damage (like untreated control) • 100%=total destruction

[2] = test system: Paddy rice (Oryza sp.); experiment: Example A: test in sown rice (Brazil), damage to rice; conditions: fentrazamide 250 EC 400 g a.i./ha; spray at 1-2-leaf stage of the rice, 10 days after sowing; scored 3 weeks after application; outdoor test Brazil 1999
From the text: as §1, §2, §3, §4

[3] = test system: Brachiaria plantaginea; experiment: Example B: test in sown rice (Brazil), herbicidal effect; conditions: fentrazamide 250 EC 300 g a.i./ha; spray at BBCH 23 stage of the rice, 29 days after sowing; scored 2 weeks after application; outdoor test Brazil 1999
From the text: as §1
as §2, with “29” for “10”, “(during” for “(when”, “BBCH 23 development stage of” for “rice has reached”, “rice; begin of stocking),” for “1-2-leaf stage),”, “A few days” for “1 month”
(§5) 2 weeks after the active compound application, the degree of damage to the rice plants and the herbicidal effect on the emerged weeds Echinochloa crus-galli and Brachiaria plantaginea is scored visually in percent in comparison to an untreated control.
as §4

[4] = test system: Echinochloa crus-galli; experiment: as above; conditions: fentrazamide 250 EC 300 g a.i./ha; spray at BBCH 23 stage of the rice, 29 days after sowing; scored 2 weeks after application; outdoor test Brazil 1999
From the text: as §1
as §2, with “29” for “10”, “(during” for “(when”, “BBCH 23 development stage of” for “rice has reached”, “rice; begin of stocking),” for “1-2-leaf stage),”, “A few days” for “1 month”
as §5, §4

[5] = test system: Paddy rice (Oryza sp.); experiment: Example B: test in sown rice (Brazil), damage to rice; conditions: fentrazamide 250 EC 300 g a.i./ha; spray at BBCH 23 stage of the rice, 29 days after sowing; scored 2 weeks after application; outdoor test Brazil 1999
From the text: as §1
as §2, with “29” for “10”, “(during” for “(when”, “BBCH 23 development stage of” for “rice has reached”, “rice; begin of stocking),” for “1-2-leaf stage),”, “A few days” for “1 month”
as §5, §4

[6] = test system: Brachiaria plantaginea; experiment: Example C: test in sown rice (Brazil), herbicidal effect; conditions: fentrazamide 250 EC 300 g a.i./ha; spray at BBCH 23 stage of the rice, 29 days after sowing; scored 2 weeks after application; outdoor test Brazil 1999
From the text: as §1
as §2, with “29” for “10”, “(during” for “(when”, “BBCH 23 development stage of” for “rice has reached”, “rice; begin of stocking),” for “1-2-leaf stage),”, “A few days” for “1 month”
as §5, §4

[7] = test system: Echinochloa crus-galli; experiment: as above; conditions: fentrazamide 250 EC 300 g a.i./ha; spray at BBCH 23 stage of the rice, 29 days after sowing; scored 2 weeks after application; outdoor test Brazil 1999
From the text: as §1
as §2, with “29” for “10”, “(during” for “(when”, “BBCH 23 development stage of” for “rice has reached”, “rice; begin of stocking),” for “1-2-leaf stage),”, “A few days” for “1 month”
as §5, §4

[8] = test system: Paddy rice (Oryza sp.); experiment: Example C: test in sown rice (Brazil), damage to rice; conditions: fentrazamide 250 EC 300 g a.i./ha; spray at BBCH 23 stage of the rice, 29 days after sowing; scored 2 weeks after application; outdoor test Brazil 1999
From the text: as §1
as §2, with “29” for “10”, “(during” for “(when”, “BBCH 23 development stage of” for “rice has reached”, “rice; begin of stocking),” for “1-2-leaf stage),”, “A few days” for “1 month”
as §5, §4

[9] = test system: Brachiaria plantaginea; experiment: Example D: test in sown rice (Brazil), herbicidal effect; conditions: fentrazamide 250 EC 300 g a.i./ha; spray at BBCH 23 stage of the rice, 29 days after sowing; scored 2 weeks after application; outdoor test Brazil 1999
From the text: as §1
as §2, with “29” for “10”, “(during” for “(when”, “BBCH 23 development stage of” for “rice has reached”, “rice; begin of stocking),” for “1-2-leaf stage),”, “A few days” for “1 month”
as §5, §4

[10] = test system: Echinochloa crus-galli; experiment: as above; conditions: fentrazamide 250 EC 300 g a.i./ha; spray at BBCH 23 stage of the rice, 29 days after sowing; scored 2 weeks after application; outdoor test Brazil 1999
From the text: as §1
as §2, with “29” for “10”, “(during” for “(when”, “BBCH 23 development stage of” for “rice has reached”, “rice; begin of stocking),” for “1-2-leaf stage),”, “A few days” for “1 month”
as §5, §4

[11] = test system: Paddy rice (Oryza sp.); experiment: Example D: test in sown rice (Brazil), damage to rice; conditions: fentrazamide 250 EC 300 g a.i./ha; spray at BBCH 23 stage of the rice, 29 days after sowing; scored 2 weeks after application; outdoor test Brazil 1999
From the text: as §1
as §2, with “29” for “10”, “(during” for “(when”, “BBCH 23 development stage of” for “rice has reached”, “rice; begin of stocking),” for “1-2-leaf stage),”, “A few days” for “1 month”
as §5, §4

[12] = test system: Brachiaria plantaginea; experiment: Example E: test in sown rice (Brazil), herbicidal effect; conditions: fentrazamide 250 EC 300 g a.i./ha; spray at BBCH 23 stage of the rice, 29 days after sowing; scored 2 weeks after application; outdoor test Brazil 1999
From the text: as §1
as §2, with “29” for “10”, “(during” for “(when”, “BBCH 23 development stage of” for “rice has reached”, “rice; begin of stocking),” for “1-2-leaf stage),”, “A few days” for “1 month”
as §5, §4

[13] = test system: Echinochloa crus-galli; experiment: as above; conditions: fentrazamide 250 EC 300 g a.i./ha; spray at BBCH 23 stage of the rice, 29 days after sowing; scored 2 weeks after application; outdoor test Brazil 1999
From the text: as §1
as §2, with “29” for “10”, “(during” for “(when”, “BBCH 23 development stage of” for “rice has reached”, “rice; begin of stocking),” for “1-2-leaf stage),”, “A few days” for “1 month”
as §5, §4

Structure (SMILES): CCN(C(=O)n1nnn(-c2ccccc2Cl)c1=O)C1CCCCC1 [(A), 4-(2-chlorophenyl)-N-cyclohexyl-N-ethyl-4,5-dihydro-5-oxo-1H-tetrazole-1-carboxamide]
- Damage or action in % Aeschynomene rudis found [1]: 30%
- Damage or action in % Paddy rice (Oryza sp.) found [2]: 0%
- Damage or action in % Brachiaria plantaginea found [3]: 10%
- Damage or action in % Echinochloa crus-galli found [4]: 35%
- Damage or action in % Paddy rice (Oryza sp.) found [5]: 0%
- Damage or action in % Brachiaria plantaginea found [6]: 10%
- Damage or action in % Echinochloa crus-galli found [7]: 35%
- Damage or action in % Paddy rice (Oryza sp.) found [8]: 0%
- Damage or action in % Brachiaria plantaginea found [9]: 10%
- Damage or action in % Echinochloa crus-galli found [10]: 35%
- Damage or action in % Paddy rice (Oryza sp.) found [11]: 0%
- Damage or action in % Brachiaria plantaginea found [12]: 10%
- Damage or action in % Echinochloa crus-galli found [13]: 35%
